Assay results taken from ChEMBL document CHEMBL4311950, “Hip To Be Square: Oxetanes as Design Elements To Alter Metabolic Pathways” (J Med Chem, 2019).
In brackets after ≈: the same amount, converted by molar mass.

Experiments:
physchem [1] = details: buffer, pH 7.4
Description: Aqueous solubility of the compound in pH 7.4 HBSS buffer HPLC-MS analysis

in vitro [2] = details: human, hepatocytes
Description: Intrinsic clearance in human hepatocytes assessed per million cells at 50 uM in presence of NADPH by HPLC-MS analysis

physchem [3] = details: pH 2.3
Description: Dissociation constant, pKa of compound at pH 2.3 to 10.8 by pressure assisted capillary electrophoresis-MS analysis

in vitro [4] = details: human, liver microsomes
Description: Intrinsic clearance in human liver microsomes at 50 uM in presence of NADPH by HPLC-MS analysis

physchem [5] = details: octanol/water, pH 7.4
Description: Octanol-water distribution coefficient, log D of the compound at pH 7.4 by RP-HPLC analysis

solubility (physchem [1]) [µM] | hepatocyte CLint at 50 µM (in vitro [2]) [µL/min/1e6 cells] | pKa (physchem [3]) | microsomal CLint at 50 µM (in vitro [4]) [µL/min/mg] | logD (physchem [5]) | Structure (SMILES)
495 (≈ 236 µg/mL) | 10.4 |  |  |  | COc1ccc(-c2nnc(C(=O)N3CC(Oc4ccc(CN5CC6(CCCO6)C5)cc4)C3)o2)cc1
867 (≈ 334 µg/mL) |  |  | < 2 | 2 | O=C(NC1C2CC3CC1CC(O)(C3)C2)c1cnc(OC2COC2)nc1C1CC1 (configuration not stated)
> 1820 |  | 2.6 | < 2 | 2.1 | O=C(NC1C2CC3CC1CC(O)(C3)C2)c1cnc(NC2COC2)nc1C1CCCC1 (configuration not stated)
221 (≈ 105 µg/mL) | 25 | 6 |  | 3.5 | COc1cc(CN2CCCC23COC3)ccc1OC1CN(C(=O)c2nnc(-c3ccccc3)o2)C1
 |  | 7.6 |  | 3.6 | Cc1cc(OC2CN(C(=O)c3nnc(-c4ccccc4)o3)C2)ccc1CN1CCCC2(COC2)C1
60 (≈ 28.6 µg/mL) | 27.5 | 8 |  | 3.8 | COc1cc(OC2CN(C(=O)c3nnc(-c4ccccc4)o3)C2)ccc1CN1CCCC12COC2
3 (≈ 1.39 µg/mL) | 38 | 7.3 |  | 2.9 | COc1ccc(-c2nnc(C(=O)N3CC(Oc4ccc(CN5CC6CC(C5)O6)cc4)C3)o2)cc1
87 (≈ 44.6 µg/mL) | 19.4 | 8.2 |  | 2.1 | COc1cc(OC2CN(C(=O)c3nnc(-c4ccc(C(F)F)cc4)o3)C2)ccc1CN1CC2(COC2)C1
3 (≈ 1.4 µg/mL) |  |  | > 300 |  | COc1ccc(-c2nnc(C(=O)N3CC(Oc4ccc(COCC5(C)COC5)cc4)C3)o2)cc1
735 (≈ 331 µg/mL) | 1.9 | 8.2 |  | 2 | O=C(c1nnc(-c2ccc(F)cc2)o1)N1CC(Oc2ccc(CN3CC4(COC4)C3)cc2)C1
39 (≈ 20.5 µg/mL) | 38.5 | 6.1 |  | 3.8 | COc1cc(CN2CCCC23COC3)ccc1OC1CN(C(=O)c2nnc(-c3ccc(C(F)F)cc3)o2)C1
43 (≈ 22.6 µg/mL) | 42.7 | 7 |  | 4.2 | COc1cc(OC2CN(C(=O)c3nnc(-c4ccc(C(F)F)cc4)o3)C2)ccc1CN1CCCC12COC2
82 (≈ 42 µg/mL) | 19.5 | 8.9 |  | 2.2 | COc1cc(CN2CC3(COC3)C2)ccc1OC1CN(C(=O)c2nnc(-c3ccc(C(F)F)cc3)o2)C1
76 (≈ 35.5 µg/mL) | 12.4 | 7.5 |  | 2.7 | O=C(c1nnc(-c2ccccc2)o1)N1CC(Oc2ccc(CN3CC4(COC4)C3)cc2Cl)C1
51 (≈ 25.4 µg/mL) | 27.2 |  |  | 2.5 | O=C(c1nnc(-c2ccc(OC(F)F)cc2)o1)N1CC(Oc2ccc(CN3CC4(COC4)C3)cc2)C1
73 (≈ 34.8 µg/mL) | 17 | 8.2 |  | 2.6 | COc1ccc(-c2nnc(C(=O)N3CC(Oc4ccc(CN5CC6(COC6)C5)c(C)c4)C3)o2)cc1
580 (≈ 223 µg/mL) |  | 2.8 | < 2 | 1.1 | O=C(NC1C2CC3CC1CC(O)(C3)C2)c1cnc(NC2COC2)nc1C1CC1 (configuration not stated)
86 (≈ 41.5 µg/mL) | 5.3 | 8.5 |  | 2.4 | O=C(c1nnc(-c2ccc(C(F)F)cc2)o1)N1CC(Oc2ccc(CN3CC4(COC4)C3)cc2)C1
 |  | 8 |  | 3 | COc1ccc(-c2nnc(C(=O)N3CC(Oc4ccc(CN(C)CC5(C)COC5)c(C)c4)C3)o2)cc1
610 (≈ 142 µg/mL) |  |  | 8.1 | 1.8 | COc1ccc(CN2CCCC23COC3)cc1
74 (≈ 35.3 µg/mL) | 18.6 | 8.4 |  | 2.5 | COc1ccc(-c2nnc(C(=O)N3CC(Oc4ccc(CN5CC6(COC6)C5)cc4C)C3)o2)cc1
476 (≈ 197 µg/mL) |  | 2.6 | 2.8 | 1.9 | O=C(NC1C2CC3CC1CC(O)(C3)C2)c1cnc(OC2COC2)nc1C1CCCC1 (configuration not stated)
90 (≈ 42 µg/mL) | 32.7 | 7.7 |  | 3 | O=C(c1nnc(-c2ccccc2)o1)N1CC(Oc2ccc(CN3CC4(COC4)C3)c(Cl)c2)C1
89 (≈ 38.5 µg/mL) | 6.1 | 8 |  |  | O=C(c1nnc(-c2ccccc2)o1)N1CC(Oc2ccc(CN3CC4(COC4)C3)cc2)C1
> 2520 |  | 2.4 | < 3.5 | 1.6 | O=C(NC1C2CC3CC1CC(O)(C3)C2)c1cnc(NC2COC2)nc1C1CCC1 (configuration not stated)
750 (≈ 186 µg/mL) |  | 8.56 | 20.6 | 0.8 | COc1ccc(CN2CCC3(CC2)COC3)cc1
818 (≈ 327 µg/mL) |  |  | 6.1 | 1.6 | O=C(NC1C2CC3CC1CC(O)(C3)C2)c1cnc(OC2COC2)nc1C1CCC1 (configuration not stated)
3 (≈ 1.43 µg/mL) | 48.7 | 6 |  |  | COc1ccc(-c2nnc(C(=O)N3CC(Oc4ccc(CN5CCCC56COC6)cc4)C3)o2)cc1
82 (≈ 39.1 µg/mL) | 10.8 |  |  |  | COc1ccc(-c2nnc(C(=O)N3CC(Oc4ccc(CN5CC6(CCOC6)C5)cc4)C3)o2)cc1
61 (≈ 28.3 µg/mL) |  | 8.2 | 103 | 2 | COc1ccc(-c2nnc(C(=O)N3CC(Oc4ccc(CNCC5(C)COC5)cc4)C3)o2)cc1

Structure (SMILES) | solubility (physchem [1]) [µM] | hepatocyte CLint at 50 µM (in vitro [2]) [µL/min/1e6 cells] | pKa (physchem [3]) | microsomal CLint at 50 µM (in vitro [4]) [µL/min/mg] | logD (physchem [5])
COc1ccc(CN2CC3(COC3)C2)cc1 | 364 (≈ 79.8 µg/mL) |  | 8.25 | < 3 | 0.4
COc1ccc(CN2CCCC3(COC3)C2)cc1 | 744 (≈ 184 µg/mL) |  | 8.08 | 28.3 | 1.5
